Experimental findings from the Biogen ADME set (Fang et al. 2023) are described below.

Structures are written as SMILES. Values after ≈ are worked out from the molar mass of the structure shown.

The conditions of the series: for aqueous solubility: pH 6.8.

Regarding `N#Cc1ccccc1OCc1csc(-c2ncccn2)n1`, the MDR1-MDCK efflux ratio came to 0.59; the intrinsic clearance, human liver microsomes came out at 31.1 mL/min/kg; the intrinsic clearance, rat liver microsomes was 119 mL/min/kg; the aqueous solubility (usually how much of the substance goes into solution per volume) was determined as 12.7 µg/mL (≈ 43.1 µM).
With `CCN1CCCN(C(=O)Nc2ccc(COC3CCCC3)cc2)CC1`, the MDR1-MDCK efflux ratio turned out to be 9.16; the intrinsic clearance, human liver microsomes amounted to 6.32 mL/min/kg; the intrinsic clearance, rat liver microsomes came out at 287 mL/min/kg.
For the molecule `COC(=O)CCCNC(=O)CN1CCC(C(=O)c2ccc(C)cc2C)CC1`, the MDR1-MDCK efflux ratio came to 3.29; the intrinsic clearance, human liver microsomes was found to be 645 mL/min/kg; the intrinsic clearance, rat liver microsomes was determined as 1910 mL/min/kg.
As to `CCN1CCc2nc(NC(=O)Cc3ccc(Cl)cc3)sc2C1`, the MDR1-MDCK efflux ratio amounted to 1.02; the intrinsic clearance, human liver microsomes was 11.6 mL/min/kg; the intrinsic clearance, rat liver microsomes was ≤ 10.7 mL/min/kg; the aqueous solubility turned out to be 46.6 µg/mL (≈ 139 µM).
As to `Cc1cc(C)n(CCNC(=O)NC2CCOCC2)n1`, the MDR1-MDCK efflux ratio is 28.3; the intrinsic clearance, human liver microsomes was ≤ 4.74 mL/min/kg; the intrinsic clearance, rat liver microsomes was ≤ 10.7 mL/min/kg; the aqueous solubility turned out to be 47.5 µg/mL (≈ 178 µM).
Regarding `Nc1ccnn1Cc1ccc(Cl)c(F)c1`, the intrinsic clearance, human liver microsomes is ≤ 4.74 mL/min/kg; the intrinsic clearance, rat liver microsomes turned out to be 36.6 mL/min/kg; the aqueous solubility came to 41.1 µg/mL (≈ 182 µM).
Turning to `CN1[C@@H]2CC[C@H]1C[C@H](OC(c1ccccc1)c1ccccc1)C2`, the MDR1-MDCK efflux ratio is 7.37; the fraction unbound, human plasma was 0.128; the fraction unbound, rat plasma amounted to 0.152; the intrinsic clearance, human liver microsomes was found to be 9.86 mL/min/kg. For the same molecule, the intrinsic clearance, rat liver microsomes came to 1090 mL/min/kg and the aqueous solubility was found to be 52.1 µg/mL (≈ 169 µM).
For `COc1cc(F)ccc1-c1ncccc1NC(=O)C(C)C`, the MDR1-MDCK efflux ratio turned out to be 3.33; the intrinsic clearance, human liver microsomes is ≤ 4.74 mL/min/kg; the intrinsic clearance, rat liver microsomes was 25.7 mL/min/kg; the aqueous solubility turned out to be 34.6 µg/mL (≈ 120 µM).
Take `c1cnc(N2CCC(Cc3ccncc3)CC2)nc1`: the MDR1-MDCK efflux ratio is 0.575; the intrinsic clearance, human liver microsomes was determined as 10.9 mL/min/kg; the intrinsic clearance, rat liver microsomes came out at 146 mL/min/kg; the aqueous solubility was determined as 58.1 µg/mL (≈ 228 µM).
On the same counts, the results for `CCn1c(C)nc2cc(NC(=O)c3ccc(=O)n(CC(=O)N4CCCCC4)c3)ccc21` are 4.08, ≤ 4.74 mL/min/kg, 54.8 mL/min/kg and 78.4 µg/mL (≈ 186 µM).
On the same counts, the results for `COc1ccccc1-c1nc(C(=O)O)cs1` are 0.649, ≤ 4.74 mL/min/kg, ≤ 10.7 mL/min/kg and 54.6 µg/mL (≈ 232 µM).
Consider `c1cnc2c(Oc3ncnc4sccc34)cccc2c1`, for which the intrinsic clearance, human liver microsomes is 44.3 mL/min/kg and the intrinsic clearance, rat liver microsomes worked out at 244 mL/min/kg.
Consider `CC(=O)NCC1CCN(C(=O)c2ccc(C)nc2)CC1`, for which the MDR1-MDCK efflux ratio was 130; the intrinsic clearance, human liver microsomes is ≤ 4.74 mL/min/kg; the intrinsic clearance, rat liver microsomes is ≤ 10.7 mL/min/kg; the aqueous solubility amounted to 54 µg/mL (≈ 196 µM).
The corresponding values for `Fc1cccc(OC2CCN(Cc3nc4ccccc4[nH]3)CC2)c1` are 0.816, 93.3 mL/min/kg, 1960 mL/min/kg and 54.9 µg/mL (≈ 169 µM).
On the same counts, the results for `N#Cc1cccc(CN2CCOC[C@H](Oc3ccccc3)C2)c1` are 0.507, 128 mL/min/kg, 2020 mL/min/kg and 52.9 µg/mL (≈ 171 µM).
The corresponding values for `Cc1ncsc1CN1CCCN(c2nc3ccccc3[nH]2)CC1` are 50.4, 36.5 mL/min/kg, 518 mL/min/kg and 51.9 µg/mL (≈ 158 µM).
Take `CC(C)c1noc(-c2ccc(N)cc2)n1`: the intrinsic clearance, human liver microsomes stood at 47.1 mL/min/kg and the intrinsic clearance, rat liver microsomes was found to be 158 mL/min/kg.
`Cc1ccc(NC(=O)c2nn(-c3ccccc3)nc2C)cc1` yielded an aqueous solubility of 0.29 µg/mL (≈ 0.992 µM).
`O=C1CC2(CCN(C(=O)NCc3ccccc3)CC2)Oc2ccccc21`: the MDR1-MDCK efflux ratio is 3.06; the intrinsic clearance, human liver microsomes came to 21.7 mL/min/kg; the intrinsic clearance, rat liver microsomes is 619 mL/min/kg; the aqueous solubility worked out at 4.13 µg/mL (≈ 11.8 µM).
On the same counts, the results for `COc1cccc(CN(C)c2ncnc3c2CN(C)CC3)c1` are 0.754, 18.6 mL/min/kg, 183 mL/min/kg and 57.7 µg/mL (≈ 193 µM).
For `COc1cc(Nc2c(C#N)cnc3cc(OCCCN4CCN(C)CC4)c(OC)cc23)c(Cl)cc1Cl`, the MDR1-MDCK efflux ratio came out at 123.
As for `Cc1nn(CCNS(=O)(=O)N2CCOCC2)c(C)c1C`, the MDR1-MDCK efflux ratio was 8.58; the intrinsic clearance, human liver microsomes worked out at 6.58 mL/min/kg; the intrinsic clearance, rat liver microsomes is 265 mL/min/kg.
Turning to `Cc1ccc2[nH]c(C3CN(C(=O)Cc4cccc5ccccc45)C3)nc2c1`, the MDR1-MDCK efflux ratio worked out at 15.2 and the aqueous solubility stood at 0.3 µg/mL (≈ 0.844 µM).
Regarding `O=c1c2ccccc2nnn1CCOc1ccc(F)cc1`, the MDR1-MDCK efflux ratio worked out at 0.42; the intrinsic clearance, human liver microsomes is 26.1 mL/min/kg; the intrinsic clearance, rat liver microsomes came out at 124 mL/min/kg.
Consider `CCn1c(=O)n(CC)c2cc(N)ccc21`, for which the MDR1-MDCK efflux ratio is 0.814; the intrinsic clearance, human liver microsomes was ≤ 4.74 mL/min/kg; the intrinsic clearance, rat liver microsomes is 20 mL/min/kg; the aqueous solubility was 37.5 µg/mL (≈ 183 µM).
As for `Cc1ccccc1N(CC(=O)O)S(C)(=O)=O`, the aqueous solubility came out at 44.7 µg/mL (≈ 184 µM).
With `Cc1nc(C2(NCc3cccc(C#N)c3)CCCC2)no1`, the MDR1-MDCK efflux ratio is 0.681; the intrinsic clearance, human liver microsomes stood at 13.3 mL/min/kg; the intrinsic clearance, rat liver microsomes came to 505 mL/min/kg; the aqueous solubility was found to be 47.6 µg/mL (≈ 169 µM).
The molecule `Cc1cccc(Cl)c1-n1c(C)n[nH]c1=O` returned an aqueous solubility of 16.1 µg/mL (≈ 72.1 µM).
In the case of `C[C@@H](c1ccccc1)N(C)C(=O)NCCN(C)CCO`, the MDR1-MDCK efflux ratio was 18.4; the intrinsic clearance, human liver microsomes was ≤ 4.74 mL/min/kg; the intrinsic clearance, rat liver microsomes was 1140 mL/min/kg.
For the molecule `O=C(O)c1ccc(-c2c[nH]c3ncc(-c4ccccc4)cc23)cc1C1CCCC1`, the MDR1-MDCK efflux ratio was 1.54 and the aqueous solubility is 0.41 µg/mL (≈ 1.07 µM).
Take `C=CC(=O)N(C)CCOc1c(N)ncnc1-c1cc(F)cc(NC(=O)c2ccc(C3CC3)cc2F)c1C`: the MDR1-MDCK efflux ratio was found to be 86.8; the fraction unbound, human plasma is 0.0689; the intrinsic clearance, human liver microsomes worked out at 79 mL/min/kg; the intrinsic clearance, rat liver microsomes was 2040 mL/min/kg. The aqueous solubility was 58.9 µg/mL (≈ 116 µM).
`Cc1cc2nc(Sc3nnc(C)n3C)c3ccccc3n2n1`: the MDR1-MDCK efflux ratio came out at 11.3; the intrinsic clearance, human liver microsomes was ≤ 4.74 mL/min/kg; the intrinsic clearance, rat liver microsomes was found to be 35 mL/min/kg.
In the case of `CCN(CC(N)=O)CC(=O)N1c2ccccc2CCc2ccccc21`, the MDR1-MDCK efflux ratio was 28.9; the intrinsic clearance, human liver microsomes was 40.9 mL/min/kg; the intrinsic clearance, rat liver microsomes was 674 mL/min/kg.
`COc1ccc2c(c1)C(=O)N(c1ccc(C)cc1)C(=O)C2` registered an intrinsic clearance, human liver microsomes of 29.8 mL/min/kg and an intrinsic clearance, rat liver microsomes of 368 mL/min/kg.
With `Cc1cc(C(=O)Nc2ccc(C)c(C)c2)n(-c2ccccc2)n1`, the MDR1-MDCK efflux ratio turned out to be 0.392; the intrinsic clearance, human liver microsomes was determined as 97 mL/min/kg; the intrinsic clearance, rat liver microsomes was determined as 2050 mL/min/kg; the aqueous solubility worked out at 3.93 µg/mL (≈ 12.9 µM).
For `Nc1ccc(Nc2ncc3cnn(C4CCCCCC4)c3n2)cn1`, the intrinsic clearance, human liver microsomes was 82.2 mL/min/kg and the intrinsic clearance, rat liver microsomes worked out at 216 mL/min/kg.
`CCn1c(COC(=O)c2ccc(C)s2)nc2cc(S(=O)(=O)N3CCCCC3)ccc21` gave an intrinsic clearance, human liver microsomes of 353 mL/min/kg; an intrinsic clearance, rat liver microsomes of 770 mL/min/kg; an aqueous solubility of 1.04 µg/mL (≈ 2.32 µM).
As for `O=C(c1ccco1)N1CCCC(C(=O)N2CCc3ccccc3C2)C1` (centres undefined), the aqueous solubility worked out at 69.8 µg/mL (≈ 206 µM).
As for `CCc1cnc(C)nc1-c1ccc(-c2ccn[nH]2)cc1`, the MDR1-MDCK efflux ratio was found to be 0.85; the intrinsic clearance, human liver microsomes is ≤ 4.74 mL/min/kg; the intrinsic clearance, rat liver microsomes was determined as 75 mL/min/kg; the aqueous solubility was 20.7 µg/mL (≈ 78.5 µM).
On the same counts, the results for `CC(C)c1noc2nc(C3CC3)cc(C(=O)N3CCN(C)C(=O)C3)c12` are 40.6, 7.73 mL/min/kg, 20.8 mL/min/kg and 36.1 µg/mL (≈ 106 µM).
As to `CN(CCOCCOc1ccccc1-c1ccccc1)Cc1ccccc1.O=C(O)C(=O)O`, the MDR1-MDCK efflux ratio was determined as 1.82; the intrinsic clearance, human liver microsomes was found to be 216 mL/min/kg; the intrinsic clearance, rat liver microsomes worked out at 1520 mL/min/kg; the aqueous solubility is 29 µg/mL.
Turning to `Oc1cccc(CN2CCN(c3ncc(Br)cn3)CC2)c1`, the intrinsic clearance, human liver microsomes turned out to be 29.3 mL/min/kg; the intrinsic clearance, rat liver microsomes was found to be 303 mL/min/kg; the aqueous solubility worked out at 4.95 µg/mL (≈ 14.2 µM).
`O=C(NCc1nnc2c(O)nccn12)C1CCCC1`: the MDR1-MDCK efflux ratio stood at 1.22; the intrinsic clearance, human liver microsomes is ≤ 4.74 mL/min/kg; the intrinsic clearance, rat liver microsomes was ≤ 10.7 mL/min/kg; the aqueous solubility is 41.8 µg/mL (≈ 160 µM).
On the same counts, the results for `CN(C)c1ccc(-c2ccc(COCc3cccs3)cc2)nn1` are 0.483, 76.5 mL/min/kg, 410 mL/min/kg and 1.35 µg/mL (≈ 4.15 µM).
On the same counts, the results for `Cc1cccc(NC(=O)c2cccnc2N2CCCCC2)n1` are 0.697, 120 mL/min/kg, 1670 mL/min/kg and 27.6 µg/mL (≈ 93.1 µM).
For `O=C(C1CCCN(S(=O)(=O)c2ccccc2)C1)N1CCc2ccccc2C1` (centres undefined), the intrinsic clearance, human liver microsomes stood at 240 mL/min/kg; the intrinsic clearance, rat liver microsomes is 3170 mL/min/kg; the aqueous solubility is 33.9 µg/mL (≈ 88 µM).
For the molecule `Cc1ccc(-n2cc[nH]c(=O)c2=O)cc1`, the MDR1-MDCK efflux ratio came to 1.05; the intrinsic clearance, human liver microsomes is ≤ 4.74 mL/min/kg; the intrinsic clearance, rat liver microsomes was ≤ 10.7 mL/min/kg; the aqueous solubility worked out at 42.9 µg/mL (≈ 212 µM).
`CC(C)(C)OC(=O)N1CC=C(CCC(=O)NO)C1` registered an aqueous solubility of 44 µg/mL (≈ 172 µM).
